{
  "source": "patent US10144929B2",
  "about": "“Polypeptide inhibitors of Smad3 polypeptide activities” (Mayo Foundation for Medical Education and Research, priority 2016, dated 2018)",
  "key": {"CTS SSCT fibroblasts": {"system": "CTS SSCT fibroblasts", "assay": "TGF-β responsive gene expression in CTS subsynovial connective tissue fibroblasts (qRT-PCR)", "format": "cell-based, human", "conditions": "1.5 μM, 90 minutes pretreatment, 2 ng/mL TGF-β 24 hours", "description": "FIG. 8 is a graph plotting the expression of CTGF. TGFβ stimulated CTGF gene expression was examined in subsynovial connective tissue as in FIGS. 3D and 4B following addition of TAT-SH3-2 (SNX9 peptide) or TAT-SH3-2M (Control peptide). The results were normalized to control treatments without TGFβ.\nFIG. 9 is a graph plotting the expression of PAI-1 by cells exposed to the indicated treatments. TGFβ stimulated PAI-1 gene expression was examined in subsynovial connective tissue as in FIG. 8.\nFibroblasts were harvested from CTS patient SSCT tissue (n=3) who had carpal tunnel release surgery as described elsewhere (Gingery et al., J. Orthop. Res., 32(11):1444-50 (2014)). The CTS SSCT fibroblasts were cultured in Minimum Essential Media (MEM) supplemented with 10% fetal bovine serum (FBS) and 1% antibiotic/antimycotic. […]\nTotal RNA was isolated gene expression was evaluated using quantitative real-time polymerase chain reaction (qRT-PCR) as described elsewhere (Gingery et al., J. Orthop. Res., 32(11):1444-50 (2014)). TGF-β responsive genes (connective tissue growth factor (CTGF) and plasminogen activator inhibitor-1 (PAI-1)) were evaluated with TATA binding protein as the housekeeping gene.\nStatistical analysis of qRT-PCR gene expression was normalized to control, and significance was determined by unpaired Student's t-test for each gene. […]"}, "pSmad3": {"molecular_target": "T1, pSmad3 (Mus musculus, UniProt Q8BUN5)", "T1 construct": "endogenous in cells; host or cells: AKR-2B cells", "T1 sequence (Q8BUN5 whole entry, the tested form may be a part)": "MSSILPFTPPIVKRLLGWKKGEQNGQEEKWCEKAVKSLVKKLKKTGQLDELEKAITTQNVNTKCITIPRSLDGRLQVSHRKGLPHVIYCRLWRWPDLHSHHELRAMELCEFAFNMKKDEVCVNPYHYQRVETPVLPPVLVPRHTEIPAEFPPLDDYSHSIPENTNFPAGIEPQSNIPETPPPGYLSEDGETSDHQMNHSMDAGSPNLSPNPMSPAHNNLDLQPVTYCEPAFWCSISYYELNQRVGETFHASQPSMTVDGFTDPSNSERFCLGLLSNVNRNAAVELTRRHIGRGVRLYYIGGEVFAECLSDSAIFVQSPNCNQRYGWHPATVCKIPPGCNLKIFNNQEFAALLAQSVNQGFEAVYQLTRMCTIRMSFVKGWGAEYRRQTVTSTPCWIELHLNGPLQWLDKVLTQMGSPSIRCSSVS", "assay": "Nuclear import of pSmad3 (nuclear fractions Western, immunofluorescence) in AKR-2B cells", "format": "cell-based", "conditions": "90 minutes transduction, TGFβ 5 ng/mL 1 hour", "protocol": "FIGS. 1A-C. SH3 domain of sorting nexin 9 (SNX9) specifically binds pSmad3 and prevents nuclear import. (A) Cartoon depicting domains in full length (FL) SNX9 and constructs used for GST pull down assays. Lysates from AKR-2B cells untreated (−) or stimulated (+) for 45 minutes with 5 ng/mL TGFβ were incubated with GST beads or the indicated fusion polypeptides immobilized on GST beads. Bound polypeptides were eluted and assessed by Western analysis for pSmad3 or pSmad2. Cell lysate reflects signal obtained from 10 μg total protein. (B) AKR-2B cells were transduced for 90 minutes with the indicated concentrations of the TAT-SNX9(SH3) fusion polypeptides. […] Quantitation of nuclear pSmads was performed with Image J software and represents the mean+/−sd of two experiments (Right). […] Quantitation of nuclear Smad3 from 30 cells in each of two experiments (Right).\nFIGS. 3A-E. Inhibition of Smad3 signaling by a defined region of the SH3 domain in SNX9. […] (B) Nuclear fractions were prepared and assessed as in FIG. 1B following transduction with the indicated TAT-SNX9(SH3) fusion polypeptide (Left). Quantitation (mean+/−sd) of nuclear pSmad2 or pSmad3 from 2 experiments (Right). (C) Immunofluorescence of nuclear Smad3 was determined as in FIG. 1C from 30 cells in each of two experiments in the absence (−) or presence (+) of 5 ng/mL TGFβ and the indicated TAT-SNX9(SH3) fusion polypeptide (1.5 μM). […]"}},
  "data": [
    {"substance": "TAT-SH3-2: TAT-SNX9(SH3) fusion polypeptide having SNX9 amino acids 21-51 (31 mer) (TVNEGEIITITNPDVGGGWLEGRNIKGERGL; left off: small tags and cut ends)", "values": [
      {"measurement": "expression of PAI-1", "setting": "CTS SSCT fibroblasts", "result": "No significant differences"},
      {"measurement": "CTGF gene expression", "setting": "CTS SSCT fibroblasts; compared with vehicle, P<0.05", "result": "down regulated"},
      {"measurement": "nuclear import of pSmad3", "setting": "pSmad3", "result": "specifically prevented pSmad3 nuclear import"}
    ]}
  ]
}
